± gives the standard deviation of the averaged measurements.
Key:
AFIMOXIFENE = compound: CC/C(=C(\c1ccc(O)cc1)c1ccc(OCCN(C)C)cc1)c1ccccc1 [AFIMOXIFENE]; test: surviving fraction relative to DMSO-only wells; higher = less growth inhibition; details: exposure time: 5 days
Method in brief: (§1)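 Inhibitors were tested at 0.5, 1, 5, 10, 50, 100, 500 and 1000 nM, applied continuously for five days beginning 24 hours after log-phase tumour cells were seeded at 250–500 per well in 384-well plates. CellTiter-Glo luminescence served as the viability measure, expressed as surviving fraction against the median of DMSO-only wells. Each line, screened three times, was kept only with replicate Pearson r >0.7 and median Z' >0.3.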

MK-1775 = compound: C=CCn1c(=O)c2cnc(Nc3ccc(N4CCN(C)CC4)cc3)nc2n1-c1cccc(C(C)(C)O)n1 [MK-1775]; test: as above; details: exposure time: 5 days
Method in brief: as §1

| Test System | surviving fraction (AFIMOXIFENE; 0.5 nM) | surviving fraction (AFIMOXIFENE; 1 nM) | surviving fraction (AFIMOXIFENE; 5 nM) | surviving fraction (AFIMOXIFENE; 10 nM) | surviving fraction (AFIMOXIFENE; 50 nM) | surviving fraction (AFIMOXIFENE; 100 nM) | surviving fraction (AFIMOXIFENE; 500 nM) | surviving fraction (AFIMOXIFENE; 1000 nM) | surviving fraction (MK-1775; 0.5 nM) | surviving fraction (MK-1775; 1 nM) | surviving fraction (MK-1775; 5 nM) | surviving fraction (MK-1775; 10 nM) | surviving fraction (MK-1775; 50 nM) | surviving fraction (MK-1775; 100 nM) | surviving fraction (MK-1775; 500 nM) | surviving fraction (MK-1775; 1000 nM) |
| --- | --- | --- | --- | --- | --- | --- | --- | --- | --- | --- | --- | --- | --- | --- | --- | --- |
| HCC1806 BREAST | 1.04 ± 0.065 | 1.1 ± 0.077 | 1.16 ± 0.12 | 1.14 ± 0.048 | 1.15 ± 0.026 | 1.13 ± 0.072 | 0.965 ± 0.028 | 0.682 ± 0.064 | 1.05 ± 0.047 | 0.996 ± 0.076 | 1.13 ± 0.032 | 1.02 ± 0.14 | 0.631 ± 0.082 | 0.303 ± 0.036 | 0.049 ± 0.0061 | 0.0403 ± 0.0015 |
| HCC1954 BREAST | 1.01 ± 0.15 | 1 ± 0.0018 | 1.31 ± 0.18 | 1.33 ± 0.1 | 0.9337 ± 0.0067 | 1.02 ± 0.056 | 0.973 ± 0.1 | 0.883 ± 0.12 | 0.762 ± 0.1 | 0.775 ± 0.012 | 1.08 ± 0.13 | 0.8722 ± 0.0025 | 0.719 ± 0.017 | 0.625 ± 0.0078 | 0.203 ± 0.013 | 0.102 ± 0.0042 |
| HCT15 LARGE INTESTINE | 1.08 ± 0.077 | 1.05 ± 0.055 | 1.07 ± 0.085 | 1.06 ± 0.097 | 1.04 ± 0.054 | 1.07 ± 0.025 | 1.07 ± 0.054 | 1.09 ± 0.056 | 1.033 ± 0.0098 | 1.02 ± 0.032 | 1 ± 0.037 | 1.02 ± 0.035 | 1.05 ± 0.037 | 1 ± 0.05 | 0.521 ± 0.087 | 0.121 ± 0.0021 |
| HELA CERVIX | 1.05 ± 0.063 | 1.02 ± 0.11 | 1.08 ± 0.061 | 1 ± 0.055 | 1.1 ± 0.071 | 1.11 ± 0.065 | 1.17 ± 0.058 | 1.08 ± 0.12 | 1.04 ± 0.025 | 1.07 ± 0.045 | 1.02 ± 0.064 | 0.993 ± 0.059 | 1.15 ± 0.039 | 1.113 ± 0.0066 | 0.0972 ± 0.0083 | 0.0538 ± 0.0035 |
| HOS BONE | 1.02 ± 0.013 | 1.03 ± 0.016 | 1.06 ± 0.012 | 1.03 ± 0.013 | 1.12 ± 0.014 | 1.08 ± 0.031 | 1.05 ± 0.024 | 0.974 ± 0.0061 | 1.02 ± 0.017 | 1.02 ± 0.011 | 1.05 ± 0.039 | 1.03 ± 0.027 | 1.027 ± 0.0056 | 0.98 ± 0.028 | 0.15 ± 0.019 | 0.065 ± 0.0027 |
| HOSMNG BONE | 0.922 ± 0.073 | 0.948 ± 0.032 | 0.996 ± 0.083 | 0.963 ± 0.038 | 1.1 ± 0.017 | 1.06 ± 0.032 | 1.07 ± 0.077 | 1.03 ± 0.078 | 1.04 ± 0.027 | 0.978 ± 0.061 | 0.935 ± 0.091 | 0.977 ± 0.11 | 1.01 ± 0.072 | 1.07 ± 0.063 | 0.143 ± 0.013 | 0.059 ± 0.0076 |
| HSSYII SYNOVIAL | 0.993 ± 0.029 | 1.04 ± 0.021 | 0.989 ± 0.075 | 1.02 ± 0.055 | 1.01 ± 0.035 | 0.993 ± 0.046 | 0.921 ± 0.07 | 0.968 ± 0.05 | 1.05 ± 0.034 | 1 ± 0.03 | 1.002 ± 0.0055 | 0.884 ± 0.012 | 0.628 ± 0.035 | 0.12 ± 0.0027 | 0.147 ± 0.064 | 0.0442 ± 0.0045 |
| HT1080 SOFT TISSUE | 1.07 ± 0.035 | 1.08 ± 0.018 | 1.08 ± 0.037 | 1.04 ± 0.018 | 1.01 ± 0.039 | 1.04 ± 0.023 | 1.07 ± 0.042 | 1.06 ± 0.035 | 1.02 ± 0.03 | 1.01 ± 0.017 | 0.992 ± 0.019 | 1.02 ± 0.023 | 0.638 ± 0.025 | 0.277 ± 0.012 | 0.113 ± 0.015 | 0.091 ± 0.0089 |
| HU09 BONE | 1 ± 0.069 | 0.969 ± 0.057 | 1.02 ± 0.077 | 1.21 ± 0.1 | 1.13 ± 0.08 | 1.04 ± 0.065 | 0.971 ± 0.083 | 0.945 ± 0.038 | 1.02 ± 0.088 | 0.916 ± 0.096 | 1.009 ± 0.01 | 0.99 ± 0.049 | 0.831 ± 0.14 | 0.518 ± 0.045 | 0.06 ± 0.005 | 0.0393 ± 0.0049 |
| HUO3N1 BONE | 1.06 ± 0.046 | 1.03 ± 0.038 | 1.1 ± 0.065 | 1.09 ± 0.029 | 1.12 ± 0.057 | 1.06 ± 0.043 | 0.932 ± 0.074 | 0.849 ± 0.033 | 0.979 ± 0.036 | 0.941 ± 0.032 | 1 ± 0.034 | 1.01 ± 0.039 | 0.995 ± 0.02 | 0.843 ± 0.041 | 0.348 ± 0.014 | 0.204 ± 0.015 |
| JIMT1 BREAST | 1.01 ± 0.045 | 0.972 ± 0.026 | 1 ± 0.032 | 0.994 ± 0.048 | 1.08 ± 0.065 | 1.05 ± 0.066 | 1.04 ± 0.08 | 0.939 ± 0.024 | 1.02 ± 0.021 | 0.987 ± 0.016 | 0.989 ± 0.01 | 0.991 ± 0.012 | 0.4405 ± 0.0039 | 0.227 ± 0.0077 | 0.0768 ± 0.0097 | 0.0532 ± 0.0013 |
| JURKAT HAEMATOPOIETIC AND LYMPHOID TISSUE | 1.06 ± 0.023 | 1.03 ± 0.026 | 1.03 ± 0.021 | 1.04 ± 0.015 | 0.953 ± 0.024 | 0.935 ± 0.061 | 0.991 ± 0.011 | 1.03 ± 0.025 | 1.09 ± 0.017 | 1.11 ± 0.016 | 1.08 ± 0.019 | 1.099 ± 0.0087 | 0.986 ± 0.038 | 0.772 ± 0.036 | 0.039 ± 0.001 | 0.039 |
| KPD BONE | 1.03 ± 0.043 | 1.03 ± 0.022 | 1.14 ± 0.088 | 1.07 ± 0.043 | 1.132 ± 0.011 | 1.1 ± 0.04 | 0.976 ± 0.049 | 0.83 ± 0.035 | 0.945 ± 0.12 | 0.91 ± 0.02 | 0.971 ± 0.029 | 0.949 ± 0.031 | 0.954 ± 0.034 | 0.808 ± 0.039 | 0.293 ± 0.0046 | 0.175 ± 0.009 |
| LM7 BONE | 1.02 ± 0.12 | 1.07 ± 0.039 | 1.06 ± 0.063 | 1.09 ± 0.075 | 1.15 ± 0.092 | 1.09 ± 0.039 | 1.03 ± 0.016 | 0.914 ± 0.058 | 0.957 ± 0.1 | 0.947 ± 0.065 | 0.999 ± 0.12 | 0.982 ± 0.15 | 0.751 ± 0.013 | 0.506 ± 0.032 | 0.146 ± 0.016 | 0.0563 ± 0.0015 |
| LNCAP PROSTATE | 1.08 ± 0.041 | 0.942 ± 0.1 | 1.04 ± 0.063 | 1 ± 0.098 | 1.06 ± 0.061 | 1.04 ± 0.087 | 1.02 ± 0.08 | 0.983 ± 0.088 | 0.99 ± 0.088 | 0.951 ± 0.14 | 0.995 ± 0.082 | 0.921 ± 0.14 | 0.984 ± 0.065 | 0.544 ± 0.073 | 0.161 ± 0.012 | 0.0767 ± 0.013 |
| MCF7 BREAST | 1.02 ± 0.045 | 0.976 ± 0.045 | 0.917 ± 0.036 | 0.928 ± 0.045 | 0.877 ± 0.035 | 0.857 ± 0.037 | 0.834 ± 0.046 | 0.775 ± 0.012 | 0.886 ± 0.021 | 0.894 ± 0.013 | 0.864 ± 0.0098 | 0.873 ± 0.042 | 0.869 ± 0.052 | 0.856 ± 0.028 | 0.736 ± 0.014 | 0.602 ± 0.035 |
| MDAMB134 BREAST | 1.32 ± 0.15 | 1.06 ± 0.073 | 1.05 ± 0.011 | 0.975 ± 0.088 | 1.16 ± 0.074 | 0.932 ± 0.037 | 0.887 ± 0.095 | 0.908 ± 0.089 | 1.11 ± 0.1 | 1.02 ± 0.086 | 1.17 ± 0.039 | 1.075 ± 0.0064 | 1.08 ± 0.064 | 0.994 ± 0.047 | 0.752 ± 0.035 | 0.733 ± 0.0099 |
| MDAMB157 BREAST | 1.04 ± 0.05 | 1.01 ± 0.062 | 1.04 ± 0.14 | 1.02 ± 0.072 | 1.06 ± 0.022 | 1.01 ± 0.014 | 0.942 ± 0.059 | 0.989 ± 0.12 | 0.835 ± 0.1 | 0.95 ± 0.075 | 0.94 ± 0.075 | 0.966 ± 0.096 | 0.522 ± 0.045 | 0.278 ± 0.067 | 0.0617 ± 0.015 | 0.0613 ± 0.0072 |
| MDAMB231 BREAST | 0.987 ± 0.017 | 1.01 ± 0.032 | 1.01 ± 0.045 | 1.01 ± 0.023 | 1.02 ± 0.024 | 1.02 ± 0.018 | 1.01 ± 0.024 | 0.955 ± 0.035 | 1.01 ± 0.034 | 1 ± 0.037 | 1 ± 0.026 | 1 ± 0.04 | 1.01 ± 0.043 | 0.778 ± 0.028 | 0.155 ± 0.0079 | 0.146 ± 0.0047 |
| MDAMB361 BREAST | 0.875 ± 0.038 | 0.832 ± 0.096 | 0.756 ± 0.061 | 0.815 ± 0.11 | 0.854 ± 0.081 | 0.856 ± 0.037 | 1.09 ± 0.078 | 0.782 ± 0.013 | 0.862 ± 0.075 | 0.805 ± 0.039 | 0.875 ± 0.053 | 0.79 ± 0.053 | 0.68 ± 0.066 | 0.549 ± 0.047 | 0.478 ± 0.014 | 0.459 ± 0.015 |

Reference: the supplement of paper PMC6045584
